Target: T1, Osh6 (Saccharomyces cerevisiae, UniProt Q02201)
T1 construct: recombinant in E. coli BL21 Star; N-terminal His6-GB1 tag cleaved by TEV
T1 sequence (Q02201 1-448): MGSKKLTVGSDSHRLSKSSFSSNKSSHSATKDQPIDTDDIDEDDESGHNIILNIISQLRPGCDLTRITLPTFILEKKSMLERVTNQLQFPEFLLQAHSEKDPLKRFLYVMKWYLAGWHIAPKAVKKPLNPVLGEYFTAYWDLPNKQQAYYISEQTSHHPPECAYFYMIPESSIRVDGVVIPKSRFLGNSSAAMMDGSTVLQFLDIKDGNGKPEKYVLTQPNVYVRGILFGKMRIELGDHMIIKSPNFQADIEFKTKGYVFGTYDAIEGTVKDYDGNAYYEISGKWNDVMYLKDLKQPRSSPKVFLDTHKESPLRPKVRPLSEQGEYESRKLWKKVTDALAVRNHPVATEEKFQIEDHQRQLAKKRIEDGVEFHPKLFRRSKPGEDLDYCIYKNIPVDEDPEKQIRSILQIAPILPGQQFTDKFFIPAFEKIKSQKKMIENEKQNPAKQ
Assay: FRET transport between LUVs, C2Lact-CFP biosensor and ATTO488-DOPE
Assay type: biochemical
Conditions: 100 nM Osh6; 5 mol% POPS donor LUVs to POPC acceptor LUVs

CCCCCCCC/C=C\CCCCCCCC(=O)O[C@H](COC(=O)CCCCCCCCCCCCCCC)COP(=O)(O)OC[C@H](N)C(=O)O [PS, POPS]
FRET transport between LUVs, C2Lact-CFP biosensor and ATTO488-DOPE: Osh6 molecules pick up PS molecules from any membrane of high PS content

— paper PMC8546167, “Osh6 Revisited: Control of PS Transport by the Concerted Actions of PI4P and Sac1 Phosphatase” (Frontiers in Molecular Biosciences, 2021)
